From US8637550B2, “Heteroaryl diamide compounds useful as MMP-13 inhibitors” (Boehringer Ingelheim International GmbH, priority 2008, dated 2014)

biological target: MMP-13 (Homo sapiens, UniProt P45452); experiment: EnzoLyte 520 Generic MMP Assay Kit, 5-FAM/QXL520 FRET peptide substrate; format: biochemical
Text: The EnzoLyte™ 520 Generic MMP Assay Kit (AnaSpec Inc.) can detect the activity of several MMPs including MMP-1, 2, 3, 7, 8, 9, 13, and 14. This kit uses a 5-FAM/QXL™520 fluorescence resonance energy transfer (FRET) peptide as an MMP substrate.

Row | IC50 [nM] | Compound
1 | 175 | CNC(=O)[C@@H](NC(=O)c1ccc(-c2cccc(CNC(=O)c3ccc(C)cc3)c2)o1)C(C)C [5-{3-[(4-Methyl-benzoylamino)-methyl]-phenyl}-furan-2-carboxylic acid ((S)-2-methyl-1-methylcarbamoyl-propyl)-amide]
2 | 165 | CNC(=O)[C@@H](NC(=O)c1ccc(-c2cccc(CNC(=O)C3CCCCC3)c2)o1)C(C)C [5-{3-[(Cyclohexanecarbonyl-amino)-methyl]-phenyl}-furan-2-carboxylic acid ((S)-2-methyl-1-methylcarbamoyl-propyl)-amide]
3 | 27 | CNC(=O)[C@@H](NC(=O)c1ccc(-c2cccc(CNC(=O)c3cccc(Br)n3)c2)o1)C1CC1 [6-Bromo-N-[3-(5-{[(1S)-1-cyclopropyl-2-(methylamino)-2-oxoethyl]carbamoyl}-2-furyl)benzyl]pyridine-2-carboxamide]
4 | 2 | CNC(=O)[C@@H](NC(=O)c1ccc(-c2cccc(CNC(=O)c3cccc(Cl)n3)c2)o1)C(C)C [6-Chloro-N-[3-(5-{[(1S)-2-methyl-1-(methylcarbamoyl)propyl]carbamoyl}-2-furyl)benzyl]pyridine-2-carboxamide]
5 | 2 | CNC(=O)[C@@H](NC(=O)c1ccc(-c2cccc(CNC(=O)c3cccc(F)n3)c2)o1)C(C)C [6-Fluoro-N-[3-(5-{[(1S)-2-methyl-1-(methylcarbamoyl)propyl]carbamoyl}-2-furyl)benzyl]pyridine-2-carboxamide]
6 | 14 | CNC(=O)[C@@H](NC(=O)c1ccc(-c2ccc(NC(=O)c3cccc(C)n3)cc2)o1)C(C)C [6-Methyl-N-[4-(5-{[(2S)-3-methyl-1-(methylamino)-1-oxobutan-2-yl]carbamoyl}furan-2-yl)phenyl]pyridine-2-carboxamide]
7 | 24 | CNC(=O)[C@@H](NC(=O)c1ccc(-c2ccc(NC(=O)c3cn4cc(C(N)=O)ccc4n3)cc2)o1)C1CCCCC1 [Imidazo[1,2-a]pyridine-2,6-dicarboxylic acid 6-amide 2-[(4-{5-[((S)-cyclohexyl-methylcarbamoyl-melhyl)-carbamoyl]-furan-2-yl}-phenyl)-amide]]
8 | 225 | CNC(=O)[C@@H](NC(=O)c1ccc(-c2ccc(NC(=O)OC)cc2)o1)C1CCCCC1 [Methyl [4-(5-{[(1S)-1-cyclohexyl-2-(methylamino)-2-oxoethyl]carbamoyl}furan-2-yl)phenyl]carbamate]
9 | 4 | CNC(=O)[C@@H](NC(=O)c1ccc(-c2cccc(CNC(=O)c3cccc(C)n3)c2)o1)C1CCCCC1 [N-[3-(5-{[(1S)-1-cyclohcxyl-2-(methylamino)-2-oxoethyl]carbamoyl}furan-2-yl)benzyl]-6-methylpyridine-2-carboxamide]
10 | 72 | CNC(=O)[C@@H](NC(=O)c1ccc(-c2cccc(CNC(=O)c3cc(C)n(C)n3)c2)o1)C1CCCCC1 [N-[3-(5-{[(1S)-1-cyclohexyl-2-(methylamino)-2-oxoethyl]carbamoyl}furan-2-yl)benzyl]-1,5-dimethyl-1H-pyrazole-3-carboxamide]
11 | 11 | CNC(=O)[C@@H](NC(=O)c1ccc(-c2cccc(CNC(=O)c3cc4ccccc4o3)c2)o1)C1CCCCC1 [N-[3-(5-{[(1S)-1-cyclohexyl-2-(methylamino)-2-oxoethyl]carbamoyl}furan-2-yl)benzyl]-1-benzofuran-2-carboxamide]
12 | 313 | CNC(=O)[C@@H](NC(=O)c1ccc(-c2cccc(CNC(=O)c3nccn3C)c2)o1)C1CCCCC1 [N-[3-(5-{[(1S)-1-cyclohexyl-2-(methylamino)-2-oxoethyl]carbamoyl}furan-2-yl)benzyl]-1-methyl-1H-imidazole-2-carboxamide]
13 | 24 | CNC(=O)[C@@H](NC(=O)c1ccc(-c2cccc(CNC(=O)c3ccn(C)n3)c2)o1)C1CCCCC1 [N-[3-(5-{[(1S)-1-cyclohexyl-2-(methylamino)-2-oxoethyl]carbamoyl}furan-2-yl)benzyl]-1-methyl-1H-pyrazole-3-carboxamide]
14 | 143 | CNC(=O)[C@@H](NC(=O)c1ccc(-c2cccc(CNC(=O)c3ccnn3C)c2)o1)C1CCCCC1 [N-[3-(5-{[(1S)-1-cyclohexyl-2-(methylamino)-2-oxoethyl]carbamoyl}furan-2-yl)benzyl]-1-methyl-1H-pyrazole-5-carboxamide]
15 | 7 | CNC(=O)[C@@H](NC(=O)c1ccc(-c2cccc(CNC(=O)c3ccnc(C(F)(F)F)n3)c2)o1)C1CCCCC1 [N-[3-(5-{[(1S)-1-cyclohexyl-2-(methylamino)-2-oxoethyl]carbamoyl}furan-2-yl)benzyl]-2-(trifluoromethyl)pyrimidine-4-carboxamide]
16 | 123 | CNC(=O)[C@@H](NC(=O)c1ccc(-c2cccc(CNC(=O)c3cc(C)n[nH]3)c2)o1)C1CCCCC1 [N-[3-(5-{[(1S)-1-cyclohexyl-2-(methylamino)-2-oxoethyl]carbamoyl}furan-2-yl)benzyl]-3-methyl-1H-pyrazole-5-carboxamide]
17 | 180 | CNC(=O)[C@@H](NC(=O)c1ccc(-c2cccc(CNC(=O)c3occc3C)c2)o1)C1CCCCC1 [N-[3-(5-{[(1S)-1-cyclohexyl-2-(methylamino)-2-oxoethyl]carbamoyl}furan-2-yl)benzyl]-3-methylfuran-2-carboxamide]

Row | IC50 [nM] | Compound
18 | 103 | CNC(=O)[C@@H](NC(=O)c1ccc(-c2cccc(CNC(=O)c3ncccc3C)c2)o1)C1CCCCC1 [N-[3-(5-{[(1S)-1-cyclohexyl-2-(methylamino)-2-oxoethyl]carbamoyl}furan-2-yl)benzyl]-3-methylpyridine-2-carboxamide]
19 | 38 | CCc1ccnc(C(=O)NCc2cccc(-c3ccc(C(=O)N[C@H](C(=O)NC)C4CCCCC4)o3)c2)c1 [N-[3-(5-{[(1S)-1-cyclohexyl-2-(methylamino)-2-oxoethyl]carbamoyl}furan-2-yl)benzyl]-4-ethylpyridine-2-carboxamide]
20 | 110 | CNC(=O)[C@@H](NC(=O)c1ccc(-c2cccc(CNC(=O)c3cn4c(C)cccc4n3)c2)o1)C1CCCCC1 [N-[3-(5-{[(1S)-1-cyclohexyl-2-(methylamino)-2-oxoethyl]carbamoyl}furan-2-yl)benzyl]-5-methylimidazo[1,2-a]pyridine-2-carboxamide]
21 | 30 | CNC(=O)[C@@H](NC(=O)c1ccc(-c2cccc(CNC(=O)c3cncc(C)c3)c2)o1)C1CCCCC1 [N-[3-(5-{[(1S)-1-cyclohexyl-2-(methylamino)-2-oxoethyl]carbamoyl}furan-2-yl)benzyl]-5-methylpyridine-3-carboxamide]
22 | 137 | CNC(=O)[C@@H](NC(=O)c1ccc(-c2cccc(CNC(=O)c3cn4ccc(C)cc4n3)c2)o1)C1CCCCC1 [N-[3-(5-{[(1S)-1-cyclohexyl-2-(methylamino)-2-oxoethyl]carbamoyl}furan-2-yl)benzyl]-7-methylimidazo[1,2-a]pyridine-2-carboxamide]
23 | 9 | CNC(=O)[C@@H](NC(=O)c1ccc(-c2cccc(CNC(=O)c3ccccn3)c2)o1)C1CCCCC1 [N-[3-(5-{[(1S)-1-cyclohexyl-2-(methylamino)-2-oxoethyl]carbamoyl}furan-2-yl)benzyl]pyridine-2-carboxamide]
24 | 2 | CNC(=O)[C@@H](NC(=O)c1ccc(-c2cccc(CNC(=O)c3ccnc(C(F)(F)F)n3)c2)o1)C1CCOCC1 [N-[3-(5-{[(1S)-2-(methylamino)-2-oxo-1-(tetrahydro-2H-pyran-4-yl)ethyl]carbamoyl}-2-furyl)benzyl]-2-(trifluoromethyl)pyrimidine-4-carboxamide]
25 | 2 | CNC(=O)[C@@H](NC(=O)c1ccc(-c2cccc(CNC(=O)c3cccc(C(F)(F)F)n3)c2)o1)C1CCOCC1 [N-[3-(5-{[(1S)-2-(methylamino)-2-oxo-1-(tetrahydro-2H-pyran-4-yl)ethyl]carbamoyl}-2-furyl)benzyl]-6-(trifluoromethyl)pyridine-2-carboxamide]
26 | 305 | CNC(=O)[C@@H](NC(=O)c1ccc(-c2cccc(CNC(=O)C3CCCN3)c2)o1)C(C)C (stereo partly drawn) [N-[3-(5-{[(1S)-2-methyl-1-(methylcarbamoy)propyl]carbamoyl}-2-furyl)benzyl]prolinamide]
27 | 8 | CNC(=O)[C@@H](NC(=O)c1ccc(-c2cccc(CNC(=O)c3cc4ccccc4o3)c2)o1)C(C)C [N-[3-(5-{[(1S)-2-methyl-1-(methylcarbamoyl)propyl]carbamoyl}-2-furyl)benzyl]-1-benzofuran-2-carboxamide]
28 | 33 | CNC(=O)[C@@H](NC(=O)c1ccc(-c2cccc(CNC(=O)c3nc4ccccc4[nH]3)c2)o1)C(C)C [N-[3-(5-{[(1S)-2-methyl-1-(methylcarbamoyl)propyl]carbamoyl}-2-furyl)benzyl]-1H-benzimidazole-2-carboxamide]
29 | 370 | CNC(=O)[C@@H](NC(=O)c1ccc(-c2cccc(CNC(=O)C3CNCCO3)c2)o1)C(C)C (stereo partly drawn) [N-[3-(5-{[(1S)-2-methyl-1-(methylcarbamoyl)propyl]carbamoyl}-2-furyl)benzyl]morpholine-2-carboxamide]
30 | 355 | CNC(=O)[C@@H](NC(=O)c1ccc(-c2cccc(CNC(=O)c3cccnc3)c2)o1)C(C)C [N-[3-(5-{[(1S)-2-methyl-1-(methylcarbamoyl)propyl]carbamoyl}-2-furyl)benzyl]nicotinamide]
31 | 270 | CNC(=O)[C@@H](NC(=O)c1ccc(-c2cccc(CNC(=O)C3CCCCN3)c2)o1)C(C)C (stereo partly drawn) [N-[3-(5-{[(1S)-2-methyl-1-(methylcarbamoyl)propyl]carbamoyl}-2-furyl)benzyl]piperidine-2-carboxamide]
32 | 430 | CNC(=O)[C@@H](NC(=O)c1ccc(-c2cccc(CNC(=O)C3CCCNC3)c2)o1)C(C)C (stereo partly drawn) [N-[3-(5-{[(1S)-2-methyl-1-(methylcarbamoyl)propyl]carbamoyl}-2-furyl)benzyl]piperidine-3-carboxamide]
33 | 32 | CNC(=O)[C@@H](NC(=O)c1ccc(-c2cccc(CNC(=O)c3cnccn3)c2)o1)C(C)C [N-[3-(5-{[(1S)-2-methyl-1-(methylcarbamoyl)propyl]carbamoyl}-2-furyl)benzyl]pyrazine-2-carboxamide]
34 | 420 | CNC(=O)[C@@H](NC(=O)c1ccc(-c2cccc(CNC(=O)c3cccnn3)c2)o1)C(C)C [N-[3-(5-{[(1S)-2-methyl-1-(methylcarbamoyl)propyl]carbamoyl}-2-furyl)benzyl]pyridazine-3-carboxamide]
